Structures can show the parent of a compound that is named as a salt.

The target of the assay is T1, human LOXL2 (Homo sapiens, UniProt Q9Y4K0).
T1 construct: expressed in transfected cells; 10-20x concentrated conditioned media used as the enzyme source
T1 sequence (Q9Y4K0 26-774): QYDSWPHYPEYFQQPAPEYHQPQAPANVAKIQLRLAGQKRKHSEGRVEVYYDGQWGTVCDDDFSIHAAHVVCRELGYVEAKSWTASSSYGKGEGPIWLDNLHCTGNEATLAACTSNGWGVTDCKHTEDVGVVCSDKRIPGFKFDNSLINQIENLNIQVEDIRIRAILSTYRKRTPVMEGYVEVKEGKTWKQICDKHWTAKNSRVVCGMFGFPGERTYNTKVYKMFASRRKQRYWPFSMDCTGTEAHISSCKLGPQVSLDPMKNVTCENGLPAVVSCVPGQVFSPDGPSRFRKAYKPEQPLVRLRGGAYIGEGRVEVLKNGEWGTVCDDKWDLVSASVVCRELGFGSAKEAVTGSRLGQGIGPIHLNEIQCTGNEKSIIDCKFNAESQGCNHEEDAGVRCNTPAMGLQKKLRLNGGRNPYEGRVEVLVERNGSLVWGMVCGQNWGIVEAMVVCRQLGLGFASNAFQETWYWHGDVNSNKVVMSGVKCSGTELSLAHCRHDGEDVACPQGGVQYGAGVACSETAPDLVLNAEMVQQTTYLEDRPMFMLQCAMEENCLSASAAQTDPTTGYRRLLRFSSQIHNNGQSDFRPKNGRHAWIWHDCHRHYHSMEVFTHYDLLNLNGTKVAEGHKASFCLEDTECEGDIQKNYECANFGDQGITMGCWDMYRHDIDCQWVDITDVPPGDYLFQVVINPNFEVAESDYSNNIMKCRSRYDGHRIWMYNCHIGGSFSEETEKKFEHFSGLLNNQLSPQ
Briefly: Human LOXL2 amine oxidase activity assay (Amplex Red fluorescence). The class given is biochemical. The note with it: concentrated conditioned media from CHO cells stably expressing human LOXL2; 2 h at 37° C. preincubation; DAP substrate. As to the method:
Example B-1: Human LOXL2 Amine Oxidase Activity Assay
LOXL2 amine oxidase activity is evaluated by measuring Amplex Red fluorescence using 10-20× concentrated conditioned media from CHO cells stably expressing human LOXL2.
To assay for amine oxidase activity, 10 μL of the concentrated conditioned media is incubated with 2 μL of test compound in DMSO and 73 μL Assay Buffer (50 mM Borate Buffer, pH8) for 2 h at 37° C. After the 2 h incubation, 5 ul of 10 mM 1,5-Diaminopentane (DAP) diluted in Assay Buffer and 10 μl of Amplex Red Mix (8.5 μl Assay Buffer+0.5 μl of 10 mM Amplex Red+1 μl of 500 U/ml Horseradish Peroxidase) are added and the plate mixed and immediately placed on the FlexStaion for fluorescence measurements. Fluorescence is read in kinetic mode every 2 min for 1 hour at excitation=544 and emission=590. The amine oxidase activity is calculated from the slope of the linear portion of the curve.
Regarding `NCc1cc(Oc2cccc(C(=O)N3CCc4cccnc4C3)c2)ncn1` [Compound 1-69, (3-((6-(Aminomethyl)pyrimidin-4-yl)oxy)phenyl)(5,6-dihydro-1,7-naphthyridin-7(8H)-yl)methanone], the IC50 was less than 100 nM.
On to `NCc1cc(-n2ncc3c(CO)cccc32)ncn1` [Compound 1-61, (1-(6-(Aminomethyl)pyrimidin-4-yl)-1H-indazol-4-yl)methanol], for which the half-maximal inhibitory concentration (IC50) is less than 100 nM.
`CC(Oc1cc(CN)ncn1)c1cccc(C(=O)Nc2ccccc2)c1` (racemic) [Compound 1-95, Racemic-3-(1-((6-(aminomethyl)pyrimidin-4-yl)oxy)ethyl)-N-phenylbenzamide] registered an IC50 of 100 to 1000 nM.
With `COc1ccc(Cn2c(C)cc3c(Oc4cc(CN)ncn4)cccc32)cn1` [Compound 1-30, (6-((1-((6-Methoxypyridin-3-yl)methyl)-2-methyl-1H-indol-4-yl)oxy)pyrimidin-4-yl)methanamine], the IC50 was less than 100 nM.
As for `C#C[C@@H](CC(=O)OC)NC(=O)c1cccc(Oc2cc(CN)ncn2)c1` [Compound 1-76, (R)-Methyl 3-(3-((6-(aminomethyl)pyrimidin-4-yl)oxy)benzamido)pent-4-ynoate], the IC50 is less than 100 nM.
`NCc1cc(Oc2cccc(C(=O)NCc3nc4ccccc4o3)c2)ncn1` [Compound 1-68, 3-((6-(Aminomethyl)pyrimidin-4-yl)oxy)-N-(benzo[d]oxazol-2-ylmethyl)benzamide] yielded an IC50 of less than 100 nM.
For the compound `CC(C)(O)CNC(=O)c1cccc(COc2cc(CN)ncn2)c1` [Compound 1-34, 3-(((6-(Aminomethyl)pyrimidin-4-yl)oxy)methyl)-N-(2-hydroxy-2-methylpropyl)benzamide], the IC50 was less than 100 nM.
On to `NCc1cc(Oc2cccc(C(=O)NCc3ccc(-c4ccc(F)cc4)cc3)c2)ncn1` [Compound 1-62, 3-((6-(Aminomethyl)pyrimidin-4-yl)oxy)-N-((4′-fluoro-[1,1′-biphenyl]-4-yl)methyl)benzamide], for which the IC50 was less than 100 nM.
Compound `NCc1cc(Oc2ccc3[nH]ccc3c2)ncn1` [Compound 1-18, (6-((1H-Indol-5-yl)oxy)pyrimidin-4-yl)methanamine trifluoroacetate] registered an IC50 of less than 100 nM.
`NCc1cc(Oc2cccc(C(=O)NCCCC(=O)O)c2)ncn1` [Compound 1-8, 4-(3-((6-(Aminomethyl)pyrimidin-4-yl)oxy)benzamido)butanoic Acid Hydrochloride] gave an IC50 of 100 to 1000 nM.
Compound `NCc1cc(Oc2cccc(C(=O)NCc3ccc(C(=O)O)cc3)c2)ncn1` [Compound 1-5, 4-((3-((6-(Aminomethyl)pyrimidin-4-yl)oxy)benzamido)methyl)benzoic Acid Hydrochloride] came in with an IC50 of less than 100 nM.
Consider `NCc1cc(Oc2ccc3cc[nH]c3c2)ncn1` [Compound 1-17, (6-((1H-Indol-6-yl)oxy)pyrimidin-4-yl)methanamine], for which the IC50 was less than 100 nM.
With `COc1ccc(CN2C(=O)CCc3c(Oc4cc(CN)ncn4)cccc32)cn1` [Compound 1-16, 5-((6-(Aminomethyl)pyrimidin-4-yl)oxy)-1-((6-methoxypyridin-3-yl)methyl)-3,4-dihydroquinolin-2(1H)-one acetate], the IC50 was less than 100 nM.
`NCc1cc(Oc2cccc(C(=O)NCCC(=O)O)c2)ncn1` [Compound 1-7, 3-(3-((6-(Aminomethyl)pyrimidin-4-yl)oxy)benzamido)propanoic Acid Hydrochloride] came in with an IC50 of 100 to 1000 nM.
Take `CN(C)C(=O)c1cccc(COc2cc(CN)ncn2)c1` [Compound 1-33, 3-(((6-(Aminomethyl)pyrimidin-4-yl)oxy)methyl)-N,N-dimethylbenzamide]: the IC50 is less than 100 nM.
Take `CS(=O)(=O)CCNC(=O)c1cccc(COc2cc(CN)ncn2)c1` [Compound 1-37, 3-(((6-(Aminomethyl)pyrimidin-4-yl)oxy)methyl)-N-(2-(methylsulfonyl)ethyl)benzamide]: the IC50 is less than 100 nM.
With `NCc1cc(N2CCC(C(=O)Nc3ccccc3)CC2)ncn1` [Compound 1-103, 1-(6-(Aminomethyl)pyrimidin-4-yl)-N-phenylpiperidine-4-carboxamide], the IC50 fell in the range of 100 to 1000 nM.
`COC(=O)Cn1ccc2c(Oc3cc(CN)ncn3)cccc21` [Compound 1-21, Methyl 2-(4-((6-(aminomethyl)pyrimidin-4-yl)oxy)-1H-indol-1-yl)acetate] showed an IC50 of less than 100 nM.
`NCc1cc(OCc2cccc(C(=O)NCc3cc4cc(F)ccc4[nH]3)c2)ncn1` [Compound 1-85, 3-(((6-(Aminomethyl)pyrimidin-4-yl)oxy)methyl)-N-((5-fluoro-1H-indol-2-yl)methyl)benzamide] displayed an IC50 of less than 100 nM.
`NCc1cc(Oc2cccc(C(=O)N3CCC(O)(C(F)(F)F)CC3)c2)ncn1` [Compound 1-74, (3-((6-(Aminomethyl)pyrimidin-4-yl)oxy)phenyl)(4-hydroxy-4-(trifluoromethyl)piperidin-1-yl)methanone]: the IC50 is less than 100 nM.
In turn, `NCc1cc(OCc2cccc(C(=O)N3CCCC(O)(C(F)(F)F)C3)c2)ncn1` (racemic) [Compound 1-35, Racemic-(3-(((6-(aminomethyl)pyrimidin-4-yl)oxy)methyl)phenyl)(3-hydroxy-3-(trifluoromethyl)piperidin-1-yl)methanone] gave an IC50 of less than 100 nM.
The compound `NCc1cc(OCc2cccc(C(=O)NCc3cc4ccccc4s3)c2)ncn1` [Compound 1-81, 3-(((6-(Aminomethyl)pyrimidin-4-yl)oxy)methyl)-N-(benzo[b]thiophen-2-ylmethyl)benzamide] came in with an IC50 of less than 100 nM.
Take `COc1ccc(Cn2cc(C)c3c(Oc4cc(CN)ncn4)cccc32)cn1` [Compound 1-31, (6-((1-((6-Methoxypyridin-3-yl)methyl)-3-methyl-1H-indol-4-yl)oxy)pyrimidin-4-yl)methanamine]: the IC50 is less than 100 nM.
Then `CN(C(=O)Cn1ccc2c(Oc3cc(CN)ncn3)cccc21)c1ccccc1` [Compound 1-24, 2-(4-((6-(Aminomethyl)pyrimidin-4-yl)oxy)-1H-indol-1-yl)-N-methyl-N-phenylacetamide], with less than 100 nM.
`NCc1cc(N2CC[C@@H](C(=O)Nc3ccccc3)C2)ncn1` [Compound 1-102, (R)-1-(6-(Aminomethyl)pyrimidin-4-yl)-N-phenylpyrrolidine-3-carboxamide] came in with an IC50 of 100 to 1000 nM.
`NCc1cc(Oc2ccc(F)cc2)ncn1` [Compound 1-1, (6-(4-Fluorophenoxy)pyrimidin-4-yl)methanamine trifluoroacetate] showed an IC50 of less than 100 nM.
Turning to `NCc1cc(Oc2cccc3[nH]ncc23)ncn1` [Compound 1-60, (6-((1H-Indazol-4-yl)oxy)pyrimidin-4-yl)methanamine], the IC50 is less than 100 nM.
The compound `NCc1cc(OCc2cccc(C(=O)NCc3cc4cc(F)ccc4s3)c2)ncn1` [Compound 1-82, 3-(((6-(Aminomethyl)pyrimidin-4-yl)oxy)methyl)-N-((5-fluorobenzo[b]thiophen-2-yl)methyl)benzamide] yielded an IC50 of less than 100 nM.
Then `NCc1cc(Oc2cccc(C(=O)NCCS(N)(=O)=O)c2)ncn1` [Compound 1-13, 3-((6-(Aminomethyl)pyrimidin-4-yl)oxy)-N-(2-sulfamoylethyl)benzamide hydrochloride], with less than 100 nM.
`NCc1cc(OCc2cccc(C(=O)N3CCc4cccnc43)c2)ncn1` [Compound 1-92, (3-(((6-(Aminomethyl)pyrimidin-4-yl)oxy)methyl)phenyl)(2,3-dihydro-1H-pyrrolo[2,3-b]pyridin-1-yl)methanone] returned an IC50 of less than 100 nM.
In turn, `Cn1c(CNC(=O)c2cccc(Oc3cc(CN)ncn3)c2)cc2ccccc21` [Compound 1-66, 3-((6-(Aminomethyl)pyrimidin-4-yl)oxy)-N-((1-methyl-1H-indol-2-yl)methyl)benzamide] gave an IC50 of less than 100 nM.
Then `NCc1cc(Oc2cccc(C(=O)Nc3ccc(C(=O)O)cc3)c2)ncn1` [Compound 1-4, 4-(3-((6-(Aminomethyl)pyrimidin-4-yl)oxy)benzamido)benzoic acid hydrochloride], with less than 100 nM.
`NCc1cc(Oc2cccc(C(=O)N3CC[C@H](O)C3)c2)ncn1` [Compound 1-10, (S)-(3-((6-(Aminomethyl)pyrimidin-4-yl)oxy)phenyl)(3-hydroxypyrrolidin-1-yl)methanone hydrochloride] had a concentration for half-maximal inhibition (IC50) of less than 100 nM.

A word on the IC50: it is the concentration at which inhibition is half-maximal. Lower therefore signals inhibition by little substance.

The record behind these values is patent US20180186755A1, “LYSYL OXIDASE-LIKE 2 INHIBITORS AND USES THEREOF” (PharmAkea, Inc., priority 2015, published 2018).
